We go through 58 molecules from article PMC12390684 (Viruses, 2025).

Sequence of IN-GCN2 interaction (6xHis-IN / GST-GCN2) (Q9P2K8 192-1024, other chains not shown): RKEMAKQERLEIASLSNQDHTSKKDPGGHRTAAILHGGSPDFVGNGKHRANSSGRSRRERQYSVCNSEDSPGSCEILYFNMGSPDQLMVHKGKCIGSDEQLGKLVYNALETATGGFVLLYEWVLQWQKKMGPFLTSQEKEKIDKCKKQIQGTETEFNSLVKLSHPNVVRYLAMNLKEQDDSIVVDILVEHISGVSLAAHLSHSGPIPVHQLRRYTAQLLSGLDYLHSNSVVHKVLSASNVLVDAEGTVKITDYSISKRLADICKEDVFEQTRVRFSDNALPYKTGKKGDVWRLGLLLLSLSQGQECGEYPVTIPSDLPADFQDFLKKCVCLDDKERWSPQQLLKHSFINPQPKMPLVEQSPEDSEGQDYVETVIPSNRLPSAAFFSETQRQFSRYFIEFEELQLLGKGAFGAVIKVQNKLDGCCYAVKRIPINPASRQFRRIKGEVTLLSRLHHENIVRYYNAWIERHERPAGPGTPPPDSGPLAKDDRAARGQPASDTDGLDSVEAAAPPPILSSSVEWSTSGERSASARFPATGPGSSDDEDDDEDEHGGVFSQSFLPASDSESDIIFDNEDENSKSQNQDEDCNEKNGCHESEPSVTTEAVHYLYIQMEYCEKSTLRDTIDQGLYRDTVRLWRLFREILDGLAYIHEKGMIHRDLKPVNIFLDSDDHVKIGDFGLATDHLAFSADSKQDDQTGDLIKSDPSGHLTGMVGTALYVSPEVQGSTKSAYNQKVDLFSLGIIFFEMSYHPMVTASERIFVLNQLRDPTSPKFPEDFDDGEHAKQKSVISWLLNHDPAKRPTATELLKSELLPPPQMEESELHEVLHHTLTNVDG

The first assay concerns the target IN-GCN2 interaction (6xHis-IN / GST-GCN2) (UniProt P04585+Q9P2K8). Nature of the assay: biochemical. Type of assay: binding, HIV-1 IN; human GCN2. The settings on record: screen, single dose 100 µM, single replicate; residual AlphaLISA signal normalized to DMSO control. For orientation: Bead proximity is the source of the signal in Alpha formats.
`C/C=C/C(=O)O` [NSC8751]: the “IN-GCN2 interaction (%)” value came out at 85.97%. Same read-out and setting: the value for `C[C@H]1O[C@@H](O[C@H]2[C@@H](O)C[C@H](O[C@H]3[C@@H](O)C[C@H](O[C@H]4CC[C@@]5(C)[C@H](CC[C@@H]6[C@@H]5CC[C@]5(C)[C@@H](C7=CC(=O)OC7)[C@@H](O)C[C@]65O)C4)O[C@@H]3C)O[C@@H]2C)C[C@H](O)[C@@H]1O` [NSC95099] was 127.68%. With `COc1c2occc2c(OC)c2c(=O)cc(C)oc12` [NSC8519], the “IN-GCN2 interaction (%)” value came to 129.74%. As for `C[N+]1([O-])[C@@H]2CC[C@H]1CC(OC(=O)C(CO)c1ccccc1)C2` (stereo partly shown) [NSC72861], the “IN-GCN2 interaction (%)” value is listed as 92.58%.

Turning to `CCCCCCCCCCCCCCCCCCOCC(O)CO` (stereo not shown) [NSC284200], the “IN-GCN2 interaction (%)” value came to 138.26%. The same measure, in the same setting: next, `CC(C)=CCCC(C)C1=C(O)C(=O)C(C)=CC1=O` (stereo not shown) [NSC365793]: 50.48%; `C=C1C(=O)OC2CC1C(O)C/C(C)=C/CC/C(C)=C/C(O)CC2C` (stereo not shown) [NSC210236]: 107.44%. The same measure, in the same setting: next, `CC(=O)O[C@@H]1[C@@H](O)C2=C3[C@]4(C)[C@@H]1C(C)(C)C(=O)C[C@@H]4[C@]3(O)[C@H](OC(C)=O)[C@@]1(C[C@@H]1C)C2=O` [NSC270914]: 122.29%; `CC1=C(C)C(=O)O[C@@H]([C@](C)(O)[C@]2(O)CC[C@@]3(O)[C@@H]4C[C@H]5O[C@]56CC=CC(=O)[C@]6(C)[C@H]4CC[C@]23C)C1` [NSC179834]: 38.70%; `CC[C@]1(O)C[C@H]2CN(CCc3c([nH]c4ccccc34)[C@@](C(=O)OC)(c3cc4c(cc3OC)N(C=O)[C@H]3[C@@](O)(C(=O)OC)[C@H](OC(C)=O)[C@]5(CC)C=CCN6CC[C@]43[C@@H]65)C2)C1` [NSC67574]: 113.01%. On to `COc1cc(O)c(C(=O)/C=C/c2ccccc2)c(OC)c1` [NSC51351], for which the “IN-GCN2 interaction (%)” value stood at 51.53%. For the molecule `COc1cccc2c1cc([N+](=O)[O-])c1c(C(=O)O)cc3c(c12)OCO3` [NSC11926], the “IN-GCN2 interaction (%)” value is recorded as 137.25%.

For the molecule `O=C(O)/C=C/CC[C@@H]1SC[C@@H]2NC(=O)N[C@@H]21` [NSC127473], the “IN-GCN2 interaction (%)” value is 109.13%. Still for that read-out and setting: the value for `O=c1[nH]cnc2c([C@@H]3O[C@H](CO)[C@@H](O)[C@H]3O)[nH]nc12` [NSC106486] was 77.11%. Same read-out and setting: the value for `C=C1C(=O)O[C@@H]2/C=C(/CO)CC/C=C(/CO)C[C@@H](OC(=O)C(C)C)[C@@H]12` [NSC295426] was 56.21%; that for `Nc1ncnc2c1ncn2[C@@H]1O[C@H](CO)[C@@H](O)[C@H]1O` [NSC7652] was 51.17%.

Take `CCC(C(=O)C(C)C(O)C(C)CCc1ccc(C)c(O)c1C(=O)O)C1OC(CC)(C2CCC(O)(CC)C(C)O2)CC1C` (stereo not shown) [NSC177406]: the “IN-GCN2 interaction (%)” value is recorded as 94.24%. Same read-out and setting: next, `COc1c(OC)c2c3c(nccc3c1OC)C(=O)c1cc(O)ccc1-2` [NSC785143]: 30.28%; `CO[C@@H]1/C=C/C=C(\C)Cc2cc(O)c(Cl)c(c2)N(C)C(=O)C[C@H](OC(=O)C(C)C)[C@]2(C)O[C@H]2[C@H](C)[C@@H]2C[C@@]1(O)NC(=O)O2` [NSC314018]: 97.15%.

Take `COc1c2c(cc3c1C1Oc4c(ccc(O)c4CC=C(C)C)C1CO3)OC(C)(C)C=C2` (stereo not shown) [NSC250430]: the “IN-GCN2 interaction (%)” value was determined as 16.46%. Take `COc1cccc2c1C1COC3C4CC(C(=O)O)C(C(C2)N13)N4C.O=C(O)CC(O)(CC(=O)O)C(=O)O` (stereo not shown) [NSC601422]: the “IN-GCN2 interaction (%)” value was found to be 152.09%. The same measure, in the same setting: next, `COc1cc(/C=C/C(=O)CC(=O)/C=C/c2ccc(O)c(OC)c2)ccc1O` [NSC32982]: 15.01%; `NC(=O)NC1NC(=O)NC1=O` (stereo not shown) [NSC7606]: 88.72%; `CO[C@@H]1[C@@H](O[C@@H]2O[C@H](C)[C@@H](O[C@H]3C[C@@](C)(O)[C@@H](OC(=O)CC(C)C)[C@H](C)O3)[C@H](N(C)C)[C@H]2O)[C@@H](CC=O)C[C@@H](C)C(=O)/C=C/[C@@H]2O[C@H]2C[C@@H](C)OC(=O)C[C@H]1OC(C)=O` [NSC51001]: 99.20%. For the molecule `C=C[C@]1(C)C=C2CC[C@@H]3[C@](C)(CCC[C@@]3(C)C(=O)O)[C@H]2CC1` [NSC6435], the “IN-GCN2 interaction (%)” value is given as 127.66%. On the same count and under the same terms, next, `CN1CCc2cc3c(cc2C(=O)Cc2ccc4c(c2C1)OCO4)OCO3.Cl` [NSC11440]: 160.70%; `COC1[C@H](O)[C@@H](O)C(O)[C@H](O)[C@H]1O` (stereo partly shown) [NSC26254]: 90.47%; `COc1c(OC)c2c3c(nccc3c1OC)-c1cc(=O)c(OC)ccc1-2` [NSC785144]: 14.73%.

For `COC(=O)c1nc(-c2ccc3c(n2)C(=O)C(N)=C(OC)C3=O)c(N)c(-c2ccc(OC)c(OC)c2O)c1C` [NSC45384], the “IN-GCN2 interaction (%)” value was found to be 82.84%. For the molecule `C[N+]1(C)C2CC(OC(=O)C(CO)c3ccccc3)CC1C1OC12` (stereo not shown) [NSC61809], the “IN-GCN2 interaction (%)” value was 93.88%.

With `COc1cc2c(cc1OC)C13CCN4CC5=CCOC(CC(=O)O)C(C5CC41)C3N2` (stereo not shown) [NSC121865], the “IN-GCN2 interaction (%)” value is listed as 122.60%. Consider `CC(O)C1/C=C/C=C/C(=O)OC2CC3OC4C5OC5(C)C(O)CC4(COC(=O)C(O)C(C)CCO1)C2(C)C31CO1` (stereo not shown) [NSC327993], for which the “IN-GCN2 interaction (%)” value was 115.91%. Turning to `CO[C@@H]1[C@H](O)C[C@@H](O[C@H]2[C@@H](C)O[C@@H](Oc3cc(O)c4c(O)c5c(cc4c3)C[C@@H]([C@H](OC)C(=O)[C@@H](O)[C@@H](C)O)[C@H](O[C@H]3C[C@@H](O[C@H]4C[C@@H](O[C@H]6C[C@](C)(O)[C@@H](OC(=O)C(C)C)[C@H](C)O6)[C@H](O)[C@@H](C)O4)[C@H](O)[C@@H](C)O3)C5=O)C[C@H]2OC(C)=O)O[C@@H]1C` [NSC38270], the “IN-GCN2 interaction (%)” value came out at 113.18%.

On to `O=c1[nH]cnc2nc[nH]c12` [NSC14665], for which the “IN-GCN2 interaction (%)” value was found to be 108.10%.

In the case of `CC1=CC2=C(C=O)C(=O)[C@](C)(O)[C@@H](O)C2=CO1` [NSC159632], the “IN-GCN2 interaction (%)” value was 82.72%.

For the molecule `CCC/C=C/C=C/C(=O)O[C@H]1/C(=C/C(=O)OC)C[C@H]2C[C@H]([C@@H](C)O)OC(=O)C[C@H](O)C[C@@H]3C[C@H](OC(C)=O)C(C)(C)[C@](O)(C[C@@H]4C/C(=C/C(=O)OC)C[C@H](/C=C/C(C)(C)[C@]1(O)O2)O4)O3` [NSC339555], the “IN-GCN2 interaction (%)” value is reported as 32.23%. The same measure, in the same setting: next, `CC1=C(O)C(=O)C(C2=C(O)C(=O)C(C)=C(O)C2=O)=C(O)C1=O` [NSC88466]: 52.93%; `COc1ccc2c(c1OC)-c1c3c(cc4c1[C@H](C2)N(C)CC4)OCO3` [NSC785162]: 46.45%; `O[C@@H]1[C@@H](O)[C@@H](O)CN2CC[C@H](O)[C@@H]12` [NSC614552]: 134.45%. The same measure, in the same setting: the value for `COc1ccc(CC2C(=O)NC(C)C(=O)N(C)C3C(=O)N(C)C(Cc4ccc(O)c(c4)Oc4ccc(cc4)C3O)C(=O)NC(C)C(=O)NC(C)C(=O)N2C)cc1` (stereo not shown) [NSC259968] was 109.81%; that for `CCC(C)(O)c1cnc(CC(C)C)c(=O)n1O` (stereo not shown) [NSC127445] was 137.47%. `O=C([O-])c1nc(=O)[nH]c(=O)[nH]1.[K+]` [NSC28841]: the “IN-GCN2 interaction (%)” value turned out to be 85.56%. Still for that read-out and setting: next, `COc1c2c(c3c(c1CCC(=O)O)OC(C)(C)C=C3)OC(C)(C)C=C2` [NSC83436]: 100.62%; `COC(=O)[C@@H]1[C@H]2C[C@@H]3c4[nH]c5ccccc5c4CCN3C[C@@H]2CC[C@@H]1O` [NSC72116]: 99.30%; `CO[C@@H]1[C@H](O)CC[C@]2(CO2)[C@H]1[C@@]1(C)O[C@@H]1CC=C(C)C` [NSC9665]: 118.70%. `CC1CCOC(=O)/C=C/C=C/C(=O)OC2CC3OC4C5OC5(C)C(O)CC4(COC(=O)C1O)C2(C)C31CO1` (stereo not shown) [NSC328166]: the “IN-GCN2 interaction (%)” value was found to be 102.91%.

`COc1cc2c3c(c4ccc(OC)c(OC)c4c2cc1OC)CN1CCC[C@@H]1C3` [NSC60387]: the “IN-GCN2 interaction (%)” value was found to be 110.26%.

For the molecule `COc1cc2c3c(c1O)-c1ccccc1CC3N(C)CC2` (stereo not shown) [NSC785177], the “IN-GCN2 interaction (%)” value is on record as 73.43%. On the same count and under the same terms, the value for `COC(=O)C1=COC(C)C2CN3CCc4c([nH]c5cc(OC)c(OC)cc45)C3CC12.O=C(O)CC(O)(CC(=O)O)C(=O)O` (stereo not shown) [NSC72715] was 63.54%; that for `COc1cc2oc3cc(=O)cc4oc(-c5ccccc5)cc(c2c2c1CCC(c1ccccc1)O2)c43` (stereo not shown) [NSC376248] was 71.04%; that for `CC(CCC/C=C/CCCN(C)C(=N)N)CC(C)C1OC(=O)C(C)C(O)/C=C/C(C)C(O)C(C)C(O)C(C)C(O)CCCC(O)CC2(O)OC(CC(OC(=O)CC(=O)O)CC(O)CC(O)C(C)C(O)/C=C/C=C/C1C)CC(O)C2O` (stereo not shown) [NSC107041] was 57.24%. Still for that read-out and setting: next, `COc1cc2c(cc1OC)[C@@]13CCN4CC5=CCO[C@H]6CC(=O)N2[C@H]1[C@H]6[C@H]5C[C@]43O` [NSC99794]: 103.59%. Consider `CC1(C)O[C@H]2CC(=O)OC[C@]23[C@H]2CC[C@@]4(C)[C@H](c5ccoc5)OC(=O)[C@H]5O[C@]54[C@]2(C)C(=O)C[C@@H]13` [NSC36508], for which the “IN-GCN2 interaction (%)” value was 112.07%. Still for that read-out and setting: next, `CC1=CC(=O)C2=C(C)CCC3C(C)C(=O)OC3C12` (stereo not shown) [NSC156236]: 75.72%; `NCCOC[C@H](N)C(=O)O` [NSC136035]: 90.45%. The same measure, in the same setting: the value for `C[C@H]1CO[C@H]2C3=C(C(=O)C=CC3=O)[C@@H]3OC(=O)[C@H]4CC[C@@H]5[C@H]1CC[C@@]52[C@@H]43` [NSC401005] was 52.24%.

The same assay, now with this note: screen, single dose 100 µM, single replicate; residual AlphaLISA signal normalized to DMSO control; listed as 36437.
`C=C1C(=O)OC2CC1C(OC(C)=O)C/C(C)=C/CC/C(C)=C\CCC2(C)O` (stereo not shown) [NSC36437]: the “IN-GCN2 interaction (%)” value is recorded as 73.91%.

The assay is the same for the next values; noted with them: screen, single dose 100 µM, single replicate; residual AlphaLISA signal normalized to DMSO control; listed as 99843.
As for `N#Cc1cn([C@@H]2O[C@H](CO)[C@@H](O)[C@H]2O)c2ncnc(N)c12` [NSC99843], the “IN-GCN2 interaction (%)” value is on record as 116.98%.
